Data set [1] is described as follows: (§1) Cytotoxicity against human HuH7 cells. It counts as cell-based, Huh-7. The following applies: HuH7 cells.
The next data set deals with Hepatitis C virus. The data set is described as follows: Antiviral activity against Hepatitis C virus assessed as inhibition of viral replication. It counts as functional, organism-based, Hepacivirus hominis.
Data set [2] relates to Huh-7. Described as §1. To be noted: huh-7. It counts as cell-based.
In data set [3] the test system is Huh-7. The data set is described as follows: Prodrug activation in human HuH7 cell lysate assessed as formation of ((2R,3R,4R,5R)-5-(2-amino-4-methoxy-7H-pyrrolo[2,3-d]pyrimidin-7-yl)-3,4-dihydroxy-4-methyltetrahydrofuran-2-yl)methyl dihydrogen phosphate after 48 hrs by NMR assay. It counts as cell-based. The following applies: huh-7, 48 h.
Data set [4] in a line: Prodrug activation in trizma buffer assessed as formation of (2S)-2-((((2R,3R,4R,5R)-5-(2-amino-4-methoxy-7H-pyrrolo[2,3-d]pyrimidin-7-yl)-3,4-dihydroxy-4-methyltetrahydrofuran-2-yl)methoxy)(hydroxy)phosphorylamino)propanoic acid by NMR assay in presence of carboxypeptidase Y.
Data set [5] is described as follows: Prodrug activation in phosphate buffer at pH 7.4 after 4 hrs by UV analysis in presence of calf adenosine deaminase. The following applies: pH 7.4, 4 h.
Data set [6] relates to Huh-7. The data set is described as follows: Prodrug activation in human HuH7 cell lysate assessed as formation of ((2R,3R,4R,5R)-5-(2-amino-4-methoxy-7H-pyrrolo[2,3-d]pyrimidin-7-yl)-3,4-dihydroxy-4-methyltetrahydrofuran-2-yl)methyl dihydrogen phosphate by NMR assay. It counts as cell-based.

pEC50: −log10 of the molar value.

With `COc1nc(N)nc2c1ncn2[C@@H]1O[C@H](COP(=O)(N[C@@H](C)C(=O)OCc2ccccc2)Oc2cccc3ccccc23)[C@@H](O)[C@@]1(C)O` (some centres undefined), in data set [1], the midpoint of cytotoxicity, the CC50, lay at 11 µM. Moreover, the pEC50 (usually the negative decadic logarithm of the EC50, by convention in mol/L) in the data set with Hepatitis C virus (Hepatitis C virus) is 7.70.
For `C[C@@]1(O)[C@H](O)[C@@H](CO)O[C@H]1n1ccc2c(N)ncnc21` [BETA-2'-C-METHYL-7-DEAZA-ADENOSINE], in that order: more than 100 µM and 6.60.
For `COc1nc(N)nc2c1ncn2[C@@H]1O[C@H](COP(=O)(N[C@@H](C)C(=O)OCC(C)(C)C)Oc2cccc3ccccc23)[C@@H](O)[C@@]1(C)O` (some centres undefined) [BMS-986094], half-maximal cytotoxicity in data set [1] (CC50) was put at 6 µM. For the same compound, the pEC50 in the data set on Hepatitis C virus (Hepatitis C virus) was 8.00.
For `COc1nc(N)nc2c1ccn2[C@@H]1O[C@H](COP(=O)(N[C@@H](C)C(=O)OCc2ccccc2)Oc2cccc3ccccc23)[C@@H](O)[C@@]1(C)O` (some centres undefined), in data set [1], the midpoint of cytotoxicity, the CC50, lay at 27 µM. Besides, the pEC50 in the data set with Hepatitis C virus (Hepatitis C virus) was 4.56.
Turning to `COc1nc(N)nc2c1ccn2[C@@H]1O[C@H](COP(=O)(N[C@@H](C)C(=O)OC2CCCCC2)Oc2cccc3ccccc23)[C@@H](O)[C@@]1(C)O` (single isomer, unassigned; fast eluting), in the data set on Huh-7 [2], the CC50 (as a rule, the concentration that lowers cell viability or growth by half) was 18 µM. Besides, the negative logarithm of the EC50 (pEC50) in the data set with Hepatitis C virus is 4.88.
Regarding `COc1nc(N)nc2c1ncn2[C@@H]1O[C@H](CO)[C@@H](O)[C@@]1(C)O` [BETA-2'-C-METHYL-6-O-METHYL GUANOSINE], the CC50 in data set [1] was more than 100 µM. In the data set on Hepatitis C virus (Hepatitis C virus), the pEC50 is 5.52.
For `COc1nc(N)nc2c1ccn2[C@@H]1O[C@H](COP(=O)(N[C@@H](C)C(=O)OC2CCCCC2)Oc2cccc3ccccc23)[C@@H](O)[C@@]1(C)O` (single isomer, unassigned; slow eluting), in that order: 13 µM and 5.05.
As for `COc1nc(N)nc2c1ccn2[C@@H]1O[C@H](COP(=O)(N[C@@H](C)C(=O)OCC(C)(C)C)Oc2cccc3ccccc23)[C@@H](O)[C@@]1(C)O` (some centres undefined), in data set [1], half-maximal cytotoxicity (CC50) was put at 27 µM. Also, the Drug metabolism entry is “Not Active” in the data set with Huh-7 [3] and “Active” in data set [4]. Besides, the pEC50 in the data set on Hepatitis C virus (Hepatitis C virus) is 4.89.
`COc1nc(N)nc2c1ccn2[C@@H]1O[C@H](CO)[C@@H](O)[C@@]1(C)O`: the CC50 in data set [1] is more than 100 µM. In addition, the Stability result in data set [5] was “Stable”. The pEC50 in the data set with Hepatitis C virus (Hepatitis C virus) is less than 4.00.
On to `COc1nc(N)nc2c1ncn2[C@@H]1O[C@H](COP(=O)(N[C@@H](C)C(=O)OC2CCCCC2)Oc2cccc3ccccc23)[C@@H](O)[C@@]1(C)O` (some centres undefined), for which the CC50 in data set [1] turned out to be 6 µM. For the same compound, in the data set with Hepatitis C virus (Hepatitis C virus), the negative-log EC50 (pEC50) was 7.52.
Regarding `COc1nc(N)nc2c1ccn2[C@@H]1O[C@H](COP(=O)(O)O)[C@@H](O)[C@@]1(C)O`, in the data set on Huh-7 [6], the Drug metabolism result is on record as “Active”.

These data come from ChEMBL document CHEMBL2346618, “Synthesis and evaluation against hepatitis C virus of 7-deaza analogues of 2'-C-methyl-6-O-methyl guanosine nucleoside and L-Alanine ester phosphoramidates” (Bioorg Med Chem Lett, 2013).
